Source: ChEMBL document CHEMBL3885861, “Open TG-GATES”

Species on record: Rattus norvegicus
Test: Open TG-GATES - Regimen: Daily Repeat
Type: toxicity, organism-based, Sprague-Dawley
Parameters: regimen Daily Repeat, gender Male, age 6 weeks
Settings: in vivo, po, 100 mg/kg, route gavage, dose level High; for KIDNEY_L / KIDNEY_R / KIDNEY_TOTAL: tissue Kidney; for AST / CRE / GLC / IP / K / LDH / RALB / TBIL / TC / TP / gamma-GTP: tissue Plasma

CN(C)CCCN1c2ccccc2CCc2ccccc21 [IMIPRAMINE]
TERMINAL_BW (72 h, time 3 day): 197.8 g
APTT (72 h, tissue Blood, time 3 day): 15.5 s
Bas (72 h, tissue Blood, time 3 day): 0%
Eos (72 h, tissue Blood, time 3 day): 1%
Fbg (72 h, tissue Blood, time 3 day): 334.4 mg/dL
Ht (72 h, tissue Blood, time 3 day): 45.9%
Lym (72 h, tissue Blood, time 3 day): 74.8%
MCHC (72 h, tissue Blood, time 3 day): 33%
MCV (72 h, tissue Blood, time 3 day): 62.6 fL
Mono (72 h, tissue Blood, time 3 day): 2.4%
PT (72 h, tissue Blood, time 3 day): 16.5 s
Plat (72 h, tissue Blood, time 3 day): 126.7 x10_4/uL
RBC (72 h, tissue Blood, time 3 day): 733.8 x10_4/ul
Ret (72 h, tissue Blood, time 3 day): 2.8%
KIDNEY_L (72 h, time 3 day): 0.9 g
KIDNEY_R (72 h, time 3 day): 0.9 g
KIDNEY_TOTAL (72 h, time 3 day): 1.8 g
AST (72 h, time 3 day): 57.2 IU/L
CRE (72 h, time 3 day): 0.2 mg/dL
GLC (72 h, time 3 day): 163.8 mg/dL
IP (72 h, time 3 day): 7.8 mg/dL
K (72 h, time 3 day): 4.3 meq/L
LDH (72 h, time 3 day): 57.8 IU/L
RALB (72 h, time 3 day): 2.5 g/dL
TBIL (72 h, time 3 day): 0.05 mg/dL
TC (72 h, time 3 day): 93.8 mg/dL
TP (72 h, time 3 day): 5.7 g/dL
gamma-GTP (72 h, time 3 day): 0.8 IU/L
TERMINAL_BW ([…], time 7 day): 201.5 g
TERMINAL_BW ([…], time 14 day): 221.4 g
TERMINAL_BW ([…], time 28 day): 293.5 g
APTT ([…], tissue Blood, time 7 day): 15.9 s
Bas ([…], tissue Blood, time 7 day): 0%
Eos ([…], tissue Blood, time 7 day): 1%
Fbg ([…], tissue Blood, time 7 day): 347.8 mg/dL
Ht ([…], tissue Blood, time 7 day): 45.6%
Lym ([…], tissue Blood, time 7 day): 82.8%
MCHC ([…], tissue Blood, time 7 day): 33.3%
MCV ([…], tissue Blood, time 7 day): 59.9 fL
Mono ([…], tissue Blood, time 7 day): 1.8%
PT ([…], tissue Blood, time 7 day): 16.9 s
Plat ([…], tissue Blood, time 7 day): 109.5 x10_4/uL
RBC ([…], tissue Blood, time 7 day): 762.2 x10_4/ul
Ret ([…], tissue Blood, time 7 day): 1.4%
APTT ([…], tissue Blood, time 14 day): 18 s
Bas ([…], tissue Blood, time 14 day): 0.4%
Eos ([…], tissue Blood, time 14 day): 1.4%
Fbg ([…], tissue Blood, time 14 day): 329.4 mg/dL
Ht ([…], tissue Blood, time 14 day): 46.8%
Lym ([…], tissue Blood, time 14 day): 69.8%
MCHC ([…], tissue Blood, time 14 day): 33.5%
MCV ([…], tissue Blood, time 14 day): 60.2 fL
Mono ([…], tissue Blood, time 14 day): 4.4%
PT ([…], tissue Blood, time 14 day): 17.3 s
Plat ([…], tissue Blood, time 14 day): 98.5 x10_4/uL
RBC ([…], tissue Blood, time 14 day): 777.6 x10_4/ul
Ret ([…], tissue Blood, time 14 day): 1.7%
APTT ([…], tissue Blood, time 28 day): 16.4 s
Bas ([…], tissue Blood, time 28 day): 0.2%
Eos ([…], tissue Blood, time 28 day): 1.2%
Fbg ([…], tissue Blood, time 28 day): 377.5 mg/dL
Ht ([…], tissue Blood, time 28 day): 46.7%
Lym ([…], tissue Blood, time 28 day): 70%
MCHC ([…], tissue Blood, time 28 day): 33.8%
MCV ([…], tissue Blood, time 28 day): 55.4 fL
Mono ([…], tissue Blood, time 28 day): 3%
Neu ([…], tissue Blood, time 28 day): 25.2%
PT ([…], tissue Blood, time 28 day): 16 s
Plat ([…], tissue Blood, time 28 day): 93.4 x10_4/uL
RBC ([…], tissue Blood, time 28 day): 842.5 x10_4/ul
Ret ([…], tissue Blood, time 28 day): 2.6%
KIDNEY_L ([…], time 7 day): 1 g
KIDNEY_R ([…], time 7 day): 0.9 g
KIDNEY_TOTAL ([…], time 7 day): 1.9 g
KIDNEY_L ([…], time 14 day): 1 g
KIDNEY_R ([…], time 14 day): 0.9 g
KIDNEY_TOTAL ([…], time 14 day): 1.9 g
KIDNEY_L ([…], time 28 day): 1.2 g
KIDNEY_R ([…], time 28 day): 1.2 g
KIDNEY_TOTAL ([…], time 28 day): 2.4 g
AST ([…], time 7 day): 51.6 IU/L
CRE ([…], time 7 day): 0.2 mg/dL
GLC ([…], time 7 day): 162.6 mg/dL
IP ([…], time 7 day): 7.2 mg/dL
K ([…], time 7 day): 4.1 meq/L
LDH ([…], time 7 day): 79 IU/L
RALB ([…], time 7 day): 2.5 g/dL
TBIL ([…], time 7 day): 0.048 mg/dL
TC ([…], time 7 day): 102.6 mg/dL
TP ([…], time 7 day): 5.6 g/dL
gamma-GTP ([…], time 7 day): 0.2 IU/L
AST ([…], time 14 day): 75.8 IU/L
CRE ([…], time 14 day): 0.2 mg/dL
GLC ([…], time 14 day): 155.8 mg/dL
IP ([…], time 14 day): 6.9 mg/dL
K ([…], time 14 day): 4.2 meq/L
LDH ([…], time 14 day): 73.6 IU/L
RALB ([…], time 14 day): 2.6 g/dL
TBIL ([…], time 14 day): 0.04 mg/dL
TC ([…], time 14 day): 74.6 mg/dL
TP ([…], time 14 day): 5.8 g/dL
gamma-GTP ([…], time 14 day): 1.2 IU/L
AST ([…], time 28 day): 56 IU/L
CRE ([…], time 28 day): 0.2 mg/dL
GLC ([…], time 28 day): 148.5 mg/dL
IP ([…], time 28 day): 7 mg/dL
K ([…], time 28 day): 4.3 meq/L
LDH ([…], time 28 day): 40.5 IU/L
RALB ([…], time 28 day): 2.7 g/dL
TBIL ([…], time 28 day): 0.0425 mg/dL
TC ([…], time 28 day): 91.8 mg/dL
TP ([…], time 28 day): 6.2 g/dL
gamma-GTP ([…], time 28 day): 0.5 IU/L
